{"source": "patent US5336483A", "about": "(priority 1993, dated 1994)", "key": {"[1]": {"test_system": "opiate rich areas of rat brain", "assay": "In vivo labelling of rat brain determined by autoradiography", "conditions": "i.v. in rats, preliminary", "description": "The radiolabelled products were stored at -20° C. and used within 1 week of purification. The material was dried down under a gentle stream of nitrogen and redissolved in normal saline prior to intravenous (IV) injection into rats (300 g, male Sprague-Dawley) in a volume of 100 μl/100 g body weight.\nCleavage of the 3-O-acetyl group of [^125 I]3-O-Acetylioxy ([^125 I]10) was performed starting with 315 μCi of [^125 I]3-O-Acetylioxydissolved in 50 μl of acetonitrile. To this solution at 25° C. was added 50 μl of concentrated aqueous ammonia solution and the reaction mixture was allowed to stand at 25° C. for 20 min. The reaction solvent was removed by careful evaporation under a stream of nitrogen. The residue was dissolved in 50 μl of 0.1% aqueous TFA/acetonitrile and purified by HPLC as described above for [^125 I]3-O-Acetylioxy to give [^125 I]1 (279 μCi, 88.5% yield). […] The [^125 I]ioxy eluted with the exact elution profile of unlabelled ioxy(1). The product was stored at -20° C. and used within 1 week of purification. The material was dried down under a gentle stream of nitrogen and redissolved in normal saline prior to intravenous (IV) injection into rats (300 g, male Sprague-Dawley) in a volume of 100 μl/100 g body weight."}, "[2]": {"biological_target": "T1, κ1 receptor (Cavia porcellus, UniProt P41144)", "T1 construct": "from tissue; host or cells: guinea pig brain membranes, pretreated with BIT and FIT", "T1 sequence (P41144 whole entry)": "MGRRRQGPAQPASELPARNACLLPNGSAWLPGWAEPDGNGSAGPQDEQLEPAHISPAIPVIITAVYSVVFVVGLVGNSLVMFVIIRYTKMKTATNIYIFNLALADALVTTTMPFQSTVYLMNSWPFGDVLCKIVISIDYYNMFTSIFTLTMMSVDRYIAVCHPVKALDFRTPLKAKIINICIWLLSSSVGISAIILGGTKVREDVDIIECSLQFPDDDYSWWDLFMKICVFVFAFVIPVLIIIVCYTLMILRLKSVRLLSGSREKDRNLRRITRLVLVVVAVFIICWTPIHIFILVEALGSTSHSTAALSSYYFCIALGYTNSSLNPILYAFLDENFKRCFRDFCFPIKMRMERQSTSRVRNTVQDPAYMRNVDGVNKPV", "assay": "biochemical", "type": "binding, guinea pig", "conditions": "ratio κ1/μ"}, "[3]": {"test_system": "morphine-induced analgesia", "assay": "In vivo antagonist activity: reversal of morphine-induced analgesia, rat paw withdrawal latency test", "description": "Assessment of the ability of compounds 1, 2 and 10, 12 to cross the blood brain barrier was tested in male Sprague-Dawley rats (300 g) acutely treated with morphine. […] A baseline paw withdrawal to a radiant thermal stimulus was obtained in unrestrained animals as described in Iadarola et al., Brain Res. 1988, 455, 205-212 and Hargreaves, Pain 1988, 32, 77-78. The stimulus was set to give a baseline withdrawal latency of approximately 10 sec. and the cutoff was at 18 sec. After baseline testing, morphine sulphate, 10 mg/kg, was injected subcutaneously in a volume of 0.1 ml of saline/100 g of body weight.\nIoxy (1) and epiloxy (2) were evaluated in rat and guinea pig brain membranes for their opiate receptor selectivity and potency. […] This comparison was not made during development of the ^18 F cyclofoxy compounds."}, "[4]": {"biological_target": "μ and κ2 receptor", "assay": "Displacement of [^3 H]CycloFOXY, μ and κ2 receptor binding, rat brain lysed-P2 membranes", "conditions": "[^3 H]CycloFOXY; read-out: Kd of radioligand"}, "[5]": {"biological_target": "Low Affinity δ Receptors", "assay": "Displacement of [^3 H]DADLE, low affinity δ receptors, rat lysed-P2 membranes", "type": "binding", "conditions": "[^3 H]DADLE, low affinity δ; δcx site; read-out: Kd of radioligand"}}, "note": "pKd: −log10 of the molar value. Entries after “also recorded” stand apart in the source; their conditions may differ."}
{"compound": "CC(=O)Oc1ccc2c3c1O[C@H]1[C@H]([125I])CC[C@@]4(O)[C@@H](C2)N(CC2CC2)CC[C@]314", "note": "[[^125 I]10, [^125 I]3-Acetoxy-6β-Iodo-14-Hydroxy-17-Cyclopropylmethyl-4,5α-Epoxymorphinan]", "values": [{"measurement": "in vivo labelling of rat brain", "setting": "[1]", "result": "could label opiate rich areas of rat brain"}]}
{"compound": "Oc1ccc2c3c1O[C@H]1[C@H](F)CC[C@@]4(O)[C@@H](C2)N(CC2CC2)CC[C@]314", "note": "[CycloFOXY, 6β-fluoro-3,14-dihydroxy-17-cyclopropyl methyl-4,5α-epoxymorphinan, reference compound]", "values": [{"measurement": "kappa selectivity κ1/μ", "setting": "[2]", "result": 0.89}]}
{"compound": "Oc1ccc2c3c1O[C@H]1[C@H]([125I])CC[C@@]4(O)[C@@H](C2)N(CC2CC2)CC[C@]314", "note": "[[^125 I]1]", "values": [{"measurement": "in vivo labelling of rat brain", "setting": "[1]", "result": "could label opiate rich areas of rat brain"}]}
{"compound": "CC(=O)Oc1ccc2c3c1O[C@H]1[C@H](I)CC[C@@]4(O)[C@@H](C2)N(CC2CC2)CC[C@]314", "note": "[Compound 10, 3-Acetoxy-6β-Iodo-14-Hydroxy-17-Cyclopropylmethyl-4,5α-Epoxymorphinan]", "values": [{"measurement": "paw withdrawal latency after i.v. injection", "setting": "[3]; 5 mg/kg i.v., tested within 5-10 min, morphine-treated rats", "result": "returned to near baseline values"}, {"measurement": "reversal of behavioral arrest and other opioid effects", "setting": "[3]; 5 mg/kg i.v., morphine sulphate 10 mg/kg s.c.", "result": "reversed in a matter of seconds"}, {"measurement": "duration of reversal", "setting": "[3]; 5 mg/kg i.v., morphine-treated rats", "result": "at least 40 min"}, {"measurement": "prodrug behaviour", "setting": "[3]; acetate esters vs 1 and 2", "result": "served as prodrug forms of 1 and 2"}, {"measurement": "blood brain barrier penetration", "setting": "[3]; i.v., inferred from reversal of morphine effects in rats", "result": "getting into the brain; also recorded: penetrated the blood brain barrier more effectively"}, {"measurement": "antagonist potency in vivo (comparison in words)", "setting": "[3]; morphine induced paw withdrawal latency", "result": "more potent effects on morphine induced paw withdrawal latency than their corresponding phenolic counterparts"}, {"measurement": "reversal of the effects of morphine", "setting": "[3]; rat paw withdrawal latency test", "result": "complete reversal of the effects of morphine"}]}
{"compound": "Oc1ccc2c3c1O[C@H]1[C@H](F)CC[C@@]4(O)[C@@H](C2)N(CC2CC2)CC[C@]314", "note": "[[^3 H]CycloFOXY, reference compound]", "values": [{"measurement": "pKd", "setting": "[4]", "result": 9.10}]}
{"compound": "[D-ala^2, D-leu^5 ]enkephalin [[^3 H] DADLE, reference compound]", "values": [{"measurement": "pKd", "setting": "[5]", "result": 7.91}]}
